# Values joined by “and” are separate entries in the source; they are usually repeats but may differ in a detail not shown here. Equal values may be shown once. Toxic doses and inconclusive results are not listed.
# Test system: BDF1 mice, P388 leukemia ip, median survival T/C
# Assay: NCI In Vivo Anticancer Drug Screen. Data for tumor model P388 Leukemia (intraperitoneal) in B6D2F1 (BDF1) mice
# Settings: endpoint: median survival time, higher = longer survival
# In short: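 Antitumour effect was judged in vivo: survival in drug-treated mice, normalised to that of vehicle-dosed controls, gives the reported T/C.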
# [1] = dose: 200.0 mg/kg/injection, schedule: Q04DX003 (ip), vehicle: Klucel (hydroxypropylcellulose) (HPC)
# [2] = dose: 100.0 mg/kg/injection, schedule: Q04DX003 (ip), vehicle: saline with Tween-80
# [3] = dose: 200.0 mg/kg/injection, schedule: Q04DX003 (ip), vehicle: saline with Tween-80
# [4] = dose: 100.0 mg/kg/injection, schedule: Q04DX003 (ip), vehicle: Klucel (hydroxypropylcellulose) (HPC)
# [5] = dose: 12.5 mg/kg/injection, schedule: Q01DX009 (ip), vehicle: saline with Tween-80
# [6] = dose: 100.0 mg/kg/injection, schedule: Q01DX009 (ip), vehicle: Klucel (hydroxypropylcellulose) (HPC)
# [7] = dose: 200.0 mg/kg/injection, schedule: Q01DX009 (ip), vehicle: Klucel (hydroxypropylcellulose) (HPC)
# [8] = dose: 50.0 mg/kg/injection, schedule: Q01DX009 (ip), vehicle: saline
# [9] = dose: 100.0 mg/kg/injection, schedule: Q01DX009 (ip), vehicle: saline
# [10] = dose: 100.0 mg/kg/injection, schedule: Q01DX009 (ip), vehicle: saline with Tween-80
# [11] = dose: 200.0 mg/kg/injection, schedule: Q01DX009 (ip), vehicle: saline with Tween-80
# [12] = dose: 400.0 mg/kg/injection, schedule: Q01DX009 (ip), vehicle: saline with Tween-80
# [13] = dose: 50.0 mg/kg/injection, schedule: Q01DX009 (ip), vehicle: saline with Tween-80
# [14] = dose: 6.25 mg/kg/injection, schedule: Q01DX009 (ip), vehicle: saline with Tween-80
# [15] = dose: 25.0 mg/kg/injection, schedule: Q01DX009 (ip), vehicle: saline with Tween-80
# [16] = dose: 50.0 mg/kg/injection, schedule: Q01DX005 (ip), vehicle: saline with Tween-80
# [17] = dose: 100.0 mg/kg/injection, schedule: Q01DX005 (ip), vehicle: saline with Tween-80
# [18] = dose: 200.0 mg/kg/injection, schedule: Q01DX005 (ip), vehicle: saline with Tween-80
# [19] = dose: 25.0 mg/kg/injection, schedule: Q04DX003 (ip), vehicle: saline
# [20] = dose: 50.0 mg/kg/injection, schedule: Q04DX003 (ip), vehicle: saline
# [21] = dose: 100.0 mg/kg/injection, schedule: Q04DX003 (ip), vehicle: saline
smiles,measurement,setting,value
COc1cc(NC(=O)CN(CCCl)CCCl)cc(OC)c1OC,T/C,"dose: 7.7 mg/kg/injection, schedule: Q04DX003 (ip), vehicle: Klucel (hydroxypropylcellulose) (HPC)",107 % of control
same,T/C,"dose: 30.0 mg/kg/injection, schedule: Q04DX003 (ip), vehicle: Klucel (hydroxypropylcellulose) (HPC)",122 % of control
same,T/C,"dose: 60.0 mg/kg/injection, schedule: Q04DX003 (ip), vehicle: Klucel (hydroxypropylcellulose) (HPC)",104 % of control and 114 % of control
same,T/C,"dose: 90.0 mg/kg/injection, schedule: Q04DX003 (ip), vehicle: Klucel (hydroxypropylcellulose) (HPC)",177 % of control
same,T/C,[1],209 % of control
same,T/C,"dose: 300.0 mg/kg/injection, schedule: Q04DX003 (ip), vehicle: Klucel (hydroxypropylcellulose) (HPC)",122 % of control
CC(=O)CC(=O)NC(C)CCc1ccccc1 (centres undefined),T/C,[2],104 % of control
same,T/C,[3],109 % of control
same,T/C,"dose: 400.0 mg/kg/injection, schedule: Q04DX003 (ip), vehicle: saline with Tween-80",109 % of control
CCC(CCC(C)C1CCC2C3CC=C4CC(OC5OC(CO)C(O)C(O)C5O)CCC4(C)C3CCC12C)C(C)C (centres undefined),T/C,[4],95 % of control
same,T/C,[1],95 % of control
CN=S(=O)(OCCCCOS(=O)(=NC)c1ccccc1)c1ccccc1 (centres undefined),T/C,[5],116 % of control
O=S1(=O)CCN(Cc2ccccc2)CC1,T/C,"dose: 50.0 mg/kg/injection, schedule: Q01DX009 (ip), vehicle: Klucel (hydroxypropylcellulose) (HPC)",96 % of control
same,T/C,[6],96 % of control
same,T/C,[7],91 % of control
CC1(C)C2CC34CCCN3C(=O)C2(CC12Nc1ccccc1C2=O)NC4=O (centres undefined),T/C,[8],102 % of control
same,T/C,[9],109 % of control
same,T/C,"dose: 200.0 mg/kg/injection, schedule: Q01DX009 (ip), vehicle: saline",113 % of control
OCc1ccccc1F,T/C,[10],88 % of control
same,T/C,[2],100 % of control
same,T/C,[11],103 % of control
same,T/C,[3],109 % of control
same,T/C,[12],111 % of control
CSC1=NN(c2ccccc2)CN(c2ccccc2)N1C,T/C,[13],95 % of control
same,T/C,[10],88 % of control
same,T/C,[11],108 % of control
COc1cc(/C=N\NC(C)=O)cc(OC)c1OC,T/C,"dose: 50.0 mg/kg/injection, schedule: Q04DX003 (ip), vehicle: saline with Tween-80",100 % of control
same,T/C,[2],90 % of control
same,T/C,[3],90 % of control
CC1CCC(C)C1NC1=NCCO1 (centres undefined),T/C,[14],109 % of control
same,T/C,[5],100 % of control
same,T/C,[15],104 % of control
Cc1c(N)c2ccccc2c(=O)n1C,T/C,[16],92 % of control
same,T/C,[17],97 % of control
same,T/C,[18],106 % of control
S=C1SCN(Cc2cccs2)CN1Cc1cccs1,T/C,[16],99 % of control
same,T/C,[17],87 % of control
same,T/C,[18],95 % of control
CC(=O)[C@H]1CC[C@H]2[C@@H]3CCC4=CC(=O)CC[C@]4(C)[C@H]3CC[C@]12C,T/C,"dose: 100.0 mg/kg/injection, schedule: Q01DX009 (sc), vehicle: steriod suspending solution",104 % of control
same,T/C,"dose: 100.0 mg/kg/injection, schedule: Q04DX003 (sc), vehicle: steriod suspending solution",100 % of control
same,T/C,"dose: 200.0 mg/kg/injection, schedule: Q01DX009 (sc), vehicle: steriod suspending solution",87 % of control
same,T/C,"dose: 200.0 mg/kg/injection, schedule: Q04DX003 (sc), vehicle: steriod suspending solution",105 % of control
same,T/C,"dose: 400.0 mg/kg/injection, schedule: Q01DX009 (sc), vehicle: steriod suspending solution",87 % of control
same,T/C,"dose: 400.0 mg/kg/injection, schedule: Q04DX003 (sc), vehicle: steriod suspending solution",110 % of control
N#Cc1cnn(C(N)=S)c1N,T/C,[19],104 % of control
same,T/C,[20],104 % of control
same,T/C,[21],100 % of control
C#CC(C)OCC1CO1 (centres undefined),T/C,[8],91 % of control
same,T/C,[20],108 % of control
same,T/C,[9],95 % of control
same,T/C,[21],91 % of control
same,T/C,"dose: 200.0 mg/kg/injection, schedule: Q04DX003 (ip), vehicle: saline",108 % of control
O=[N+]([O-])c1ccc(Sc2ccc(Cl)cc2)c2nonc12,T/C,[13],92 % of control
O=C(N=Nc1c(O)[nH]c2c(Cl)cc(Cl)cc12)C(=O)Nc1cccc(C(F)(F)F)c1,T/C,[10],90 % of control
same,T/C,[11],96 % of control
CC1(C)CC2(OC2c2ccccc2)C(C)(O)c2ccccc21 (centres undefined),T/C,[6],95 % of control
same,T/C,[4],110 % of control
same,T/C,[7],90 % of control
same,T/C,[1],105 % of control
same,T/C,"dose: 400.0 mg/kg/injection, schedule: Q01DX009 (ip), vehicle: Klucel (hydroxypropylcellulose) (HPC)",100 % of control
same,T/C,"dose: 400.0 mg/kg/injection, schedule: Q04DX003 (ip), vehicle: Klucel (hydroxypropylcellulose) (HPC)",105 % of control
CCO/C=C1\SC(=S)N(c2ccc(O)cc2)C1=O,T/C,[13],116 % of control
same,T/C,[10],116 % of control
same,T/C,[11],116 % of control
NC(N)=N/N=C/c1cccc2ccccc12,T/C,[14],100 % of control
same,T/C,[5],108 % of control
same,T/C,[15],108 % of control
CCCCCCC#CC(=O)O,T/C,[13],100 % of control
same,T/C,"dose: 50.0 mg/kg/injection, schedule: Q01DX009 (sc), vehicle: olive oil, sesame oil, peanut oil",96 % of control
same,T/C,[10],98 % of control
same,T/C,"dose: 100.0 mg/kg/injection, schedule: Q01DX009 (sc), vehicle: olive oil, sesame oil, peanut oil",96 % of control
same,T/C,"dose: 100.0 mg/kg/injection, schedule: Q04DX003 (sc), vehicle: olive oil, sesame oil, peanut oil",100 % of control
same,T/C,[11],116 % of control
same,T/C,"dose: 200.0 mg/kg/injection, schedule: Q01DX009 (sc), vehicle: olive oil, sesame oil, peanut oil",92 % of control
same,T/C,"dose: 200.0 mg/kg/injection, schedule: Q04DX003 (sc), vehicle: olive oil, sesame oil, peanut oil",96 % of control
CCc1oc(=O)c(Cc2c(O)cc(O)c3c2OC(c2ccccc2)CC3=O)c(O)c1C (centres undefined),T/C,"dose: 4.0 mg/kg/injection, schedule: Q01DX009 (ip), vehicle: Klucel (hydroxypropylcellulose) (HPC)",95 % of control
same,T/C,"dose: 8.0 mg/kg/injection, schedule: Q01DX009 (ip), vehicle: Klucel (hydroxypropylcellulose) (HPC)",100 % of control
same,T/C,"dose: 16.0 mg/kg/injection, schedule: Q01DX009 (ip), vehicle: Klucel (hydroxypropylcellulose) (HPC)",93 % of control
same,T/C,"dose: 32.0 mg/kg/injection, schedule: Q01DX009 (ip), vehicle: Klucel (hydroxypropylcellulose) (HPC)",93 % of control
Cc1c(OCc2ccccc2)cccc1[N+](=O)[O-],T/C,"dose: 100.0 mg/kg/injection, schedule: Q01DX009 (ip), vehicle: other",109 % of control
same,T/C,"dose: 100.0 mg/kg/injection, schedule: Q04DX003 (ip), vehicle: other",113 % of control
same,T/C,"dose: 200.0 mg/kg/injection, schedule: Q01DX009 (ip), vehicle: other",119 % of control
same,T/C,"dose: 200.0 mg/kg/injection, schedule: Q04DX003 (ip), vehicle: other",100 % of control
same,T/C,"dose: 400.0 mg/kg/injection, schedule: Q01DX009 (ip), vehicle: other",109 % of control
same,T/C,"dose: 400.0 mg/kg/injection, schedule: Q04DX003 (ip), vehicle: other",109 % of control
O=C1CCCCc2ccc(O)cc21,T/C,[10],99 % of control
same,T/C,[11],89 % of control
same,T/C,[12],93 % of control
COc1ccc(/C=C/[N+](=O)[O-])cc1O,T/C,"dose: 6.25 mg/kg/injection, schedule: Q01DX009 (ip), vehicle: saline",106 % of control
same,T/C,"dose: 12.5 mg/kg/injection, schedule: Q01DX009 (ip), vehicle: saline",115 % of control and 121 % of control
same,T/C,"dose: 12.5 mg/kg/injection, schedule: Q04DX003 (ip), vehicle: saline",113 % of control
same,T/C,"dose: 25.0 mg/kg/injection, schedule: Q01DX009 (ip), vehicle: saline",111 % of control and 121 % of control
same,T/C,[19],113 % of control
same,T/C,[8],95 % of control and 123 % of control
same,T/C,[20],114 % of control and 122 % of control
same,T/C,[21],114 % of control and 122 % of control
CN(C)N=Nc1cc(Cl)cc(C(N)=O)c1Cl,T/C,[5],108 % of control
same,T/C,[15],104 % of control
same,T/C,[13],104 % of control
same,T/C,"dose: 88.0 mg/kg/injection, schedule: Q01DX009 (ip), vehicle: saline with Tween-80",108 % of control
same,T/C,"dose: 177.0 mg/kg/injection, schedule: Q01DX009 (ip), vehicle: saline with Tween-80",95 % of control
same,T/C,"dose: 266.0 mg/kg/injection, schedule: Q01DX009 (ip), vehicle: saline with Tween-80",87 % of control
Br/C(C=Nc1ccccc1)=C\Nc1ccccc1,T/C,[10],100 % of control
same,T/C,[11],110 % of control
